Reference: US7943660B2, “Inhibitors of the LFA-1/ICAM-1 interaction and uses thereof” (Dominion Pharmakine S.L., priority 2005, dated 2011)

melting point | SMILES
140 to 141 °C | CC[C@H](C)C(OCc1ccccc1)[C@H]1[C@H]([N+](=O)[O-])[C@H](c2ccccc2)N[C@@H]1C(=O)NCCC(=O)O (stereo partly drawn) [Compound 1, 3-[(2S,3R,4S,5S)-3-[(2S)-1-(Benzyloxy)-2-methylbutyl]-4-nitro-5-phenylpyrrolidine-2-carboxamido]propanoic acid]
136 to 138 °C | CC[C@H](C)C(OCc1ccccc1F)[C@H]1[C@H]([N+](=O)[O-])[C@H](c2ccccc2)N[C@@H]1C(=O)NCCC(=O)O (stereo partly drawn) [Compound 3, 3-[(2S,3R,4S,5S)-3-[(2S)-1-(2-Fluorobenzyloxy)-2-methylbutyl]-4-nitro-5-phenylpyrrolidine-2-carboxamido]propanoic acid]
113 to 114 °C | CC[C@H](C)C(OCc1ccccc1F)[C@H]1[C@H]([N+](=O)[O-])[C@H](c2ccsc2)N[C@@H]1C(=O)NCCC(=O)O (stereo partly drawn) [Compound 4, 3-[(2S,3R,4S,5S)-3-[(2S)-1-(2-Fluorobenzyloxy)-2-methylbutyl]-4-nitro-5-(thiophen-3-yl)pyrrolidine-2-carboxamido]propanoic acid]
145 to 146 °C | CC[C@H](C)C(OCc1ccccc1)[C@H]1[C@H]([N+](=O)[O-])[C@H](c2ccsc2)N[C@@H]1C(=O)NCCC(=O)O (stereo partly drawn) [Compound 5, 3-[(2S,3R,4S,5S)-3-[(2S)-1-(Benzyloxy)-2-methylbutyl]-4-nitro-5-(thiophen-3-yl)pyrrolidine-2-carboxamido]propanoic acid]
94 to 96 °C | CC[C@H](C)C(OCc1ccccc1F)[C@H]1[C@H]([N+](=O)[O-])[C@@H](c2cccs2)N[C@@H]1C(=O)NCCC(=O)O (stereo partly drawn) [Compound 6, 3-[(2S,3R,4S,5S)-3-[(2S)-1-(2-Fluorobenzyloxy)-2-methylbutyl]-4-nitro-5-(thiophen-2-yl)pyrrolidine-2-carboxamido]propanoic acid]
79 to 80 °C | CC[C@H](C)C(OCc1ccccc1)[C@H]1[C@H]([N+](=O)[O-])[C@@H](c2cccs2)N[C@@H]1C(=O)NCCC(=O)O (stereo partly drawn) [Compound 7, 3-[(2S,3R,4S,5S)-3-[(2S)-1-(Benzyloxy)-2-methylbutyl]-4-nitro-5-(thiophen-2-yl)pyrrolidine-2-carboxamido]propanoic acid]
98 to 100 °C | CC(C)C(OCc1ccccc1)[C@H]1[C@H]([N+](=O)[O-])[C@H](c2cccnc2)N[C@@H]1C(=O)NCCC(=O)O (stereo partly drawn) [Compound 8, 3-[(2S,3R,4S,5S)-3-(1-(Benzyloxy)-2-methylpropyl)-4-nitro-5-(pyridin-3-yl)pyrrolidine-2-carboxamido]propanoic acid]
70 to 72 °C | CC(C)C(OCc1ccccc1)[C@H]1[C@H]([N+](=O)[O-])[C@@H](c2ccco2)N[C@@H]1C(=O)NCCC(=O)O (stereo partly drawn) [Compound 9, 3-[(2S,3R,4S,5S)-3-(1-(Benzyloxy)-2-methylpropyl)-5-(furan-2-yl)-4-nitropyrrolidine-2-carboxamido]propanoic acid]
115.9 to 116.2 °C | CC[C@H](C)C(OCc1ccccc1)[C@@H]1[C@H]([N+](=O)[O-])[C@H](c2ccccc2)N(C(=O)CN)[C@]1(C)C(=O)NCCC(=O)O (stereo partly drawn) [Compound 16, 3-[(2S,3R,4S,5S)-1-(2-Aminoacetyl)-3-[(2S)-1-(benzyloxy)-2-methylbutyl]-2-methyl-4-nitro-5-phenylpyrrolidine-2-carboxamido]propanoic acid]
132.7 to 133.6 °C | CC[C@H](C)C(OCc1ccccc1)[C@@H]1[C@H]([N+](=O)[O-])[C@H](c2ccccc2)N(C(=O)CN)[C@]1(C)C(=O)NCCCC(=O)O (stereo partly drawn) [Compound 17, 4-[(2S,3R,4S,5S)-1-(2-aminoacetyl)-3-[(2S)-1-(benzyloxy)-2-methylbutyl]-2-methyl-4-nitro-5-phenylpyrrolidine-2-carboxamido]butanoic acid]
